In brackets after ≈: the same amount, converted by molar mass. Structures can show the parent of a compound that is named as a salt. Where two headings read alike, the source gives them in different places.
Legend:
Strep. pyogenes C-203 [1] = test: median protective dose in mice given lethal systemic infections, Strep. pyogenes C-203; type: in vivo; conditions: Streptococcus pyogenes, single dose at time of challenge, read-out: median protective dose (PD50)
Experimental: (§1) The in vivo activity is obtained when the compounds are tested according to the procedure of Miller, et al (Proc. Soc. Exp. Biol. Med. 57, 261, 1944). The median protective dose (PD50) was determined in mice given lethal systemic infections. Single doses of compound were given at time of challenge.
(§2) By use of the above methods, the following minimum inhibiting concentration values (MICs in μg/mL), PD50 's in mg/kg, no effect phototoxicity dose in mg/kg and the cytotoxicity IC50 in μg/mL were obtained for representative enantiomers of the invention and compounds of the prior art as shown in the table.
(§3) The in vivo data as PD50 s are reported below the line of MICs for the same compound.

Klebs. pneumoniae MGH-2 = test: in vitro antibacterial activity, microtitration dilution (MIC), Klebs. pneumoniae MGH-2; type: cell-based; conditions: Klebsiella pneumoniae, MGH2, read-out: minimum inhibiting concentration (MIC)
Excerpt: (§4) The in vitro antibacterial activity, is obtained by the microtitration dilution method as described in Heifetz, et al., Antimicr. Agents & Chemother., 6, 124 (1974), which is incorporated herein by reference.
as §2

Strep. faecalis MGH-2 = test: in vitro antibacterial activity, microtitration dilution (MIC), Strep. faecalis MGH-2; type: cell-based; conditions: Enterococcus faecalis, MGH2, read-out: minimum inhibiting concentration (MIC)
Excerpt: as §4, §2

Pseud. aeruginosa UI-18 = test: in vitro antibacterial activity, microtitration dilution (MIC), Pseud. aeruginosa UI-18; type: cell-based; conditions: Pseudomonas aeruginosa, UI18, read-out: minimum inhibiting concentration (MIC)
Excerpt: as §4, §2

Prot. rettgeri M 1771 = test: in vitro antibacterial activity, microtitration dilution (MIC), Prot. rettgeri M 1771; type: cell-based; conditions: Providencia rettgeri, M1771, read-out: minimum inhibiting concentration (MIC)
Excerpt: as §4, §2

Strep. pheumoniae SV-1 = test: in vitro antibacterial activity, microtitration dilution (MIC), Strep. pneumoniae SV-1; type: cell-based; conditions: Streptococcus pneumoniae, SV1, read-out: minimum inhibiting concentration (MIC)
Excerpt: as §4, §2

Staph. aureus H 228 = test: in vitro antibacterial activity, microtitration dilution (MIC), Staph. aureus H 228; type: cell-based; conditions: Staphylococcus aureus, H228, read-out: minimum inhibiting concentration (MIC)
Excerpt: as §4, §2

Ent. cloacae MA2646 = test: in vitro antibacterial activity, microtitration dilution (MIC), Ent. cloacae MA2646; type: cell-based; conditions: Enterobacter cloacae, read-out: minimum inhibiting concentration (MIC)
Excerpt: as §4, §2

Staph. aureus UC-76 = test: in vitro antibacterial activity, microtitration dilution (MIC), Staph. aureus UC-76; type: cell-based; conditions: Staphylococcus aureus, UC76, read-out: minimum inhibiting concentration (MIC)
Excerpt: as §4, §2

Strep. pyogenes C-203 [2] = test: in vitro antibacterial activity, microtitration dilution (MIC), Strep. pyogenes C-203; type: cell-based; conditions: Streptococcus pyogenes, C203, read-out: minimum inhibiting concentration (MIC)
Excerpt: as §4, §2

Esch. coli Vogel [3] = test: in vitro antibacterial activity, microtitration dilution (MIC), Esch. coli Vogel; type: cell-based; conditions: Escherichia coli, read-out: minimum inhibiting concentration (MIC)
Excerpt: as §4, §2

Esch. coli Vogel [4] = test: median protective dose in mice given lethal systemic infections, Esch. coli Vogel; type: in vivo; conditions: Escherichia coli, single dose at time of challenge, read-out: median protective dose (PD50)
Experimental: as §1, §2, §3

[5] = cytotoxicity, hamster V-79 cells, colony reduction; type: cell-based; conditions: 3 hours treatment, colonies counted after 5 days, read-out: Cytotox (cytotoxicity IC50)
Experimental: The cytotoxicity data is obtained using hamster V-79 cells. The cells were suspended in tissue culture medium and grown overnight. Cells were treated with drug for 3 hours, washed free of drug and then replated, and the colonies counted after 5 days. The concentration of drug that reduced colones by 50% relative to control was recorded.
as §2

| Structure (SMILES) | ED50 (Strep. pyogenes C-203 [1]; C203, PO) | ED50 (Strep. pyogenes C-203 [1]; C203, SC) | MIC (Klebs. pneumoniae MGH-2) | MIC (Strep. faecalis MGH-2) | MIC (Pseud. aeruginosa UI-18) | MIC (Prot. rettgeri M 1771) | MIC (Strep. pheumoniae SV-1) | MIC (Staph. aureus H 228) | MIC (Ent. cloacae MA2646) | MIC (Staph. aureus UC-76) | MIC (Strep. pyogenes C-203 [2]) | MIC (Esch. coli Vogel [3]) | ED50 (Esch. coli Vogel [4]; PO) | ED50 (Esch. coli Vogel [4]; SC) | CC50 at 3 h [5] |
| --- | --- | --- | --- | --- | --- | --- | --- | --- | --- | --- | --- | --- | --- | --- | --- |
| CN[C@@H](C)[C@@H]1CCN(c2cc3c(c(C)c2F)c(=O)c(C(=O)O)cn3C2CC2)C1 [Example 67, 3R,1S-1-cyclopropyl-6-fluoro-1,4-dihydro-5-methyl-7-[3-[1-(methylamino)ethyl]-1-pyrrolidinyl]-4-oxo-3-quinolinecarboxylic acid, monohydrochloride] | 29 mg/kg | 3 mg/kg | 0.8 µg/mL | 0.1 µg/mL | 3.1 µg/mL | 1.6 µg/mL | 0.013 µg/mL | 0.05 µg/mL | 0.4 µg/mL | 0.013 µg/mL | 0.025 µg/mL |  |  |  |  |
| CCN[C@H](C)[C@H]1CCN(c2nc3c(cc2F)c(=O)c(C(=O)O)cn3C2CC2)C1 [Example 79, 3S,1R-1-cyclopropyl-7-[3-[1-(ethylamino)ethyl]-1-pyrrolidinyl]-6-fluoro-1,4-dihydro-4-oxo-1,8-naphthyridine-3-carboxylic acid] | 2 mg/kg | 2 mg/kg | 0.2 µg/mL (≈ 0.515 µM) | 0.05 µg/mL (≈ 0.129 µM) | 1.6 µg/mL (≈ 4.12 µM) | 0.8 µg/mL (≈ 2.06 µM) | 0.025 µg/mL (≈ 0.0644 µM) | 0.1 µg/mL (≈ 0.257 µM) | 0.1 µg/mL (≈ 0.257 µM) | 0.025 µg/mL (≈ 0.0644 µM) | 0.05 µg/mL (≈ 0.129 µM) | 0.1 µg/mL (≈ 0.257 µM) | 2 mg/kg | 1 mg/kg |  |
| CCOc1c(N2CC[C@@H]([C@H](C)NC)C2)c(F)cc2c(=O)c(C(=O)O)cn(C3CC3)c12 [Example 57, 3R,1S-1-cyclopropyl-8-ethoxy-6-fluoro-1,4-dihydro-7-[3-(1-N-methylaminoethyl)-1-pyrrolidinyl]-4-oxo-3-quinolinecarboxylic acid] |  |  | 0.4 µg/mL (≈ 0.958 µM) | 0.05 µg/mL (≈ 0.12 µM) | 3.1 µg/mL (≈ 7.43 µM) | 0.8 µg/mL (≈ 1.92 µM) | 0.025 µg/mL (≈ 0.0599 µM) | 0.025 µg/mL (≈ 0.0599 µM) | 0.4 µg/mL (≈ 0.958 µM) | 0.013 µg/mL (≈ 0.0311 µM) | 0.025 µg/mL (≈ 0.0599 µM) | 0.4 µg/mL (≈ 0.958 µM) |  |  | 220 µg/mL (≈ 527 µM) |
| CCN[C@@H](C)[C@@H]1CCN(c2c(F)c(N)c3c(=O)c(C(=O)O)cn(C4CC4)c3c2F)C1 [Example 53, 3R,1S-5-amino-1-cyclopropyl-7-[3-(1-N-ethylaminoethyl)-1-pyrrolidinyl]-6,8-difluoro-1,4-dihydro-4-oxo-3-quinolinecarboxylic acid] | 0.3 mg/kg | 0.3 mg/kg | 0.05 µg/mL (≈ 0.119 µM) | 0.013 µg/mL (≈ 0.0309 µM) | 0.8 µg/mL (≈ 1.9 µM) | 0.1 µg/mL (≈ 0.238 µM) | ≤ 0.003 µg/mL | ≤ 0.003 µg/mL | 0.025 µg/mL (≈ 0.0595 µM) | ≤ 0.003 µg/mL | ≤ 0.003 µg/mL | 0.025 µg/mL (≈ 0.0595 µM) | 1.6 mg/kg | 0.8 mg/kg |  |
| CCN[C@@H](C)[C@@H]1CCN(c2nc3c(cc2F)c(=O)c(C(=O)O)cn3C2CC2)C1 [Example 78, 3R,1S-1-cyclopropyl-7-[3-[1-(ethylamino)ethyl]-1-pyrrolidinyl]-6-fluoro-1,4-dihydro-4-oxo-1,8-naphthyridine-3-carboxylic acid] | 6 mg/kg | 4 mg/kg | 0.2 µg/mL (≈ 0.515 µM) | 0.05 µg/mL (≈ 0.129 µM) | 1.6 µg/mL (≈ 4.12 µM) | 1.6 µg/mL (≈ 4.12 µM) | 0.025 µg/mL (≈ 0.0644 µM) | 0.05 µg/mL (≈ 0.129 µM) | 0.4 µg/mL (≈ 1.03 µM) | 0.025 µg/mL (≈ 0.0644 µM) | 0.05 µg/mL (≈ 0.129 µM) | 0.1 µg/mL (≈ 0.257 µM) |  |  |  |
| CCN[C@H](C)[C@@H]1CCN(c2nc3c(cc2F)c(=O)c(C(=O)O)cn3-c2ccc(F)cc2F)C1 [Example 51, 3R,1R-7-[3-(1-N-ethylaminoethyl)-1-pyrrolidinyl]-1-(2,4-difluorophenyl)-6-fluoro-1,4-dihydro-4-oxo-1,8-naphthyridine-3-carboxylic acid] |  |  | 1.6 µg/mL (≈ 3.47 µM) | 0.4 µg/mL (≈ 0.869 µM) | > 3.1 µg/mL | 3.1 µg/mL (≈ 6.73 µM) | 0.2 µg/mL (≈ 0.434 µM) | 0.2 µg/mL (≈ 0.434 µM) | 0.8 µg/mL (≈ 1.74 µM) | 0.05 µg/mL (≈ 0.109 µM) | 0.2 µg/mL (≈ 0.434 µM) | 0.8 µg/mL (≈ 1.74 µM) |  |  |  |
| CN[C@@H](C)[C@@H]1CCN(c2c(F)c(C)c3c(=O)c(C(=O)O)cn(C4CC4)c3c2OC)C1 [Example 61, 3R,1S-1-cyclopropyl-6-fluoro-7-[3-(1-N-methylaminoethyl)-1-pyrrolidinyl]-5-methyl-8-methoxy-1,4-dihydro-4-oxo-3-quinolinecarboxylic acid] |  |  | 0.2 µg/mL (≈ 0.479 µM) | 0.025 µg/mL (≈ 0.0599 µM) | 1.6 µg/mL (≈ 3.83 µM) | 0.4 µg/mL (≈ 0.958 µM) | ≤ 0.003 µg/mL | 0.006 µg/mL (≈ 0.0144 µM) | 0.1 µg/mL (≈ 0.24 µM) | ≤ 0.003 µg/mL | ≤ 0.003 µg/mL | 0.1 µg/mL (≈ 0.24 µM) |  |  |  |
